Measurements: US20170258871A1, “COMBINED USE OF A TRKA INHIBITOR AND AN EPHA2 INHIBITOR FOR USING IN THE TREATMENT OF SOLID CANCERS, AND METHOD FOR THE PROGNOSIS OF SURVIVAL OF A PATIENT WHO HAS A SOLID CANCER” (UNIVERSITE DES SCIENCES ET TECHNOLOGIES DE LILLE, priority 2014, published 2017)

Columns and labels:
Format in all cases: cell-based
CAL27 cells = test: In vitro invasion test (Boyden chamber), CAL 27; conditions: NGF 16 nM or proNGF N.C. 0.5 nM, untreated cells = 100%
Description: (§1) (0.5 nM) for a period of 20 hours. The untreated cells represent the control and determine a base invasion of 100%.
(§2) The Boyden Chambers (Transwell®; BD Biosciences; France) were recovered from a biological matrix (type 1 collagen from rats diluted to 400 μg·mL-1 in EMEM-0.1% FCS medium; Millipore). The cells were then seeded with 100,000 cells/well on PET membranes (polyethylene terephtalate; dia.: 10.5 mm; porosity: 8 μm) of Boyden Chambers and held in an EMEM-0.1% FCS medium. […] (0.5 nM) in the lower part. After 20 hours of culture, they were washed twice with PBS 1× and fixed (ice cold methanol; 15 min; −20° C.). The non-invasive cells (upper face of the Transwell®) were eliminated by scraping. The number of cells was estimated after staining with Hoechst 33 258 (1 mM; 30 min; 20° C.) by counting the nuclei thereof using fluorescence microscopy on a total of 5 five randomly chosen fields (lens 10×; λ-excitation: 345 nm; λ-emission: 478 nm; Eclipse Ti) using the ImageJ software. Each experiment was performed in triplicate. Statistical analysis of the results was performed by analysis of variance ANOVA (Bonferroni post-hoc test).

SQ20B cells = test: In vitro invasion test (Boyden chamber), SQ20B; conditions: NGF 16 nM or proNGF N.C. 0.5 nM, untreated cells = 100%
Description: as §1, §2

EphA2 = test: Western blot of EphA2 expression after siRNA; conditions: MDA-MB-231 HA-TrkA transfected with siEphA2
Description: D. Cells MDA-MB-231 HA-TrkA were transfected with siEphA2 and then treated with proNGF N.C. (30 min). The recruitment of the sortilin and EphA2 was determined after anti-HA immunoprecipitation.
The sequences of siRNA used against EphA2 (siEphA2) at 100 pmol for each transfection, and against TrkA (pool of 3 siTrkA 1, 2 and 3) are given in table 1. The transfections of siRNA are produced by means of […]in™ according to the manufacturers instructions (POL409-10, Polyplus transfection, Ozyme, Saint Quentin en Yvelines, France).
After treatment, the cells were lysed (lysis buffer: 40 mM HEPES pH 7.5; 1 mM EDTA pH 8.0; 120 mM NaCl; 10 mM NaPPi; 50 mM NaF; 1.5 mM Na3VO4; 1% Triton X 100; 0.1% SDS; 1 mM PMSF; 10% glycerol and 1/100 th of protease inhibitor cocktail (Sigma) (20 min; 4° C.)). The lysates were recovered and clarified by centrifugation (12,000 g; 10 min; 4° C.). The supernatant was then stored at −80° C. until use. The protein extracts were diluted to 2 μg·μL−1 in a Laemmli 1× buffer (7 min; 100° C.) then deposited and separated on SDS-PAGE (concentration gel 3.6% acrylamide and separation gel 7.5% to 10% acrylamide (thickness 1 mm); 180 V; 10 min then 200 V constant; until output of the migration front). […] The membranes were placed in an image analyser (LAS 4000; Fuji) connected to a computer which allowed image generation (software Image Reader LAS 4000). […]

Row | Substance | cell invasion under growth factor (CAL27 cells) | cell invasion under growth factor (SQ20B cells) | expression of EphA2 protein (EphA2)
1 | NGF: Nerve Growth Factor; recombinant human β NGF supplied by Scil Proteins | did not respond | induced | –
2 | siEphA2: siRNA against EphA2, GCAAGGAAGUGGUACUGCUGGACUU (SEQ ID NO: 1) (listed as RNA, chemistry not given here) | – | – | completely abolished the expression
